Laboratory results taken from ChEMBL document CHEMBL4411303, “Synthesis of tetrazole derivatives bearing pyrrolidine scaffold and evaluation of their antifungal activity against Candida albicans” (Eur J Med Chem, 2019).
Converted amounts (≈) assume the structure as drawn. The source made the active and inactive calls. The rule behind the calls is not given here.

How the values were obtained:
Candida albicans [1] = test: Antifungal activity against Candida albicans ATCC 90028 assessed as planktonic growth inhibition at 0.08 uM after 48 hrs by M27-A3 protocol based method relative to control; assay type: functional; settings: ATCC 90028, 48 h, read-out: GI
Candida albicans [2] = test: Antifungal activity against Candida albicans ATCC 90028 assessed as planktonic growth inhibition at 0.16 uM after 48 hrs by M27-A3 protocol based method relative to control; assay type: functional; settings: ATCC 90028, 48 h, read-out: GI
Candida albicans [3] = test: Antifungal activity against Candida albicans ATCC 90028 assessed as planktonic growth inhibition at 0.31 uM after 48 hrs by M27-A3 protocol based method relative to control; assay type: functional; settings: ATCC 90028, 48 h, read-out: GI
Candida albicans [4] = test: Antifungal activity against Candida albicans ATCC 90028 assessed as planktonic growth inhibition at 0.62 uM after 48 hrs by M27-A3 protocol based method relative to control; assay type: functional; settings: ATCC 90028, 48 h, read-out: GI
Candida albicans [5] = test: Antifungal activity against Candida albicans ATCC 90028 assessed as planktonic growth inhibition at 1.24 uM after 48 hrs by M27-A3 protocol based method relative to control; assay type: functional; settings: ATCC 90028, 48 h, read-out: GI
Candida albicans [6] = test: Antifungal activity against Candida albicans ATCC 90028 assessed as planktonic growth inhibition at 2.49 uM after 48 hrs by M27-A3 protocol based method relative to control; assay type: functional; settings: ATCC 90028, 48 h, read-out: GI
Candida albicans [7] = test: Antifungal activity against Candida albicans ATCC 90028 assessed as planktonic growth inhibition at 4.97 uM after 48 hrs by M27-A3 protocol based method relative to control; assay type: functional; settings: ATCC 90028, 48 h, read-out: GI
Candida albicans [8] = test: Antifungal activity against Candida albicans ATCC 90028 assessed as planktonic growth inhibition at 9.94 uM after 48 hrs by M27-A3 protocol based method relative to control; assay type: functional; settings: ATCC 90028, 48 h, read-out: GI
Candida albicans [9] = test: Antifungal activity against Candida albicans ATCC 90028 assessed as planktonic growth inhibition at 19.88 uM after 48 hrs by M27-A3 protocol based method relative to control; assay type: functional; settings: ATCC 90028, 48 h, read-out: GI
Candida albicans [10] = test: Antifungal activity against Candida albicans ATCC 90028 assessed as planktonic growth inhibition at 39.77 uM after 48 hrs by M27-A3 protocol based method relative to control; assay type: functional; settings: ATCC 90028, 48 h, read-out: GI
Candida albicans [11] = test: Fungicidal activity against Candida albicans ATCC 90028 assessed as log reduction in fungal load incubated for 48 hrs followed by replating on sabouraud dextrose agar plate and measured after 48 hrs; assay type: functional
Vero = test: Cytotoxicity against African green monkey Vero cells assessed as reduction in cell viability at 318.16 uM after 18 hrs by XTT assay relative to control; assay type: cell-based; settings: chlorocebus sabaeus
[12] = Selectivity index, ratio of CC50 for African green monkey Vero cells to IC50 for Candida albicans ATCC 90028; assay type: toxicity; settings: read-out: Ratio CC50/IC50
Candida albicans [13] = test: Antibiofilm activity against Candida albicans ATCC 90028 assessed as inhibition of biofilm formation […] after 24 hrs by XTT assay relative to control; assay type: functional, organism-based; settings: ATCC 90028, 24 h
Candida albicans [14] = test: Induction of Candida albicans ATCC 90028 internalization in mouse RAW264.7 cells assessed as reduction in fungus-induced cell damage by measuring live and early apoptotic cells at 39.77 uM after 2 hrs acridine orange/ethidium bromide staining based confocal scanning microscopic analysis; assay type: functional, organism-based
Candida albicans [15] = test: Antifungal activity against Candida albicans ATCC 90028 assessed as planktonic growth inhibition at 0.09 uM after 48 hrs by M27-A3 protocol based method relative to control; assay type: functional; settings: ATCC 90028, 48 h, read-out: GI
Candida albicans [16] = test: Antifungal activity against Candida albicans ATCC 90028 assessed as planktonic growth inhibition at 0.18 uM after 48 hrs by M27-A3 protocol based method relative to control; assay type: functional; settings: ATCC 90028, 48 h, read-out: GI
Candida albicans [17] = test: Antifungal activity against Candida albicans ATCC 90028 assessed as planktonic growth inhibition at 0.36 uM after 48 hrs by M27-A3 protocol based method relative to control; assay type: functional; settings: ATCC 90028, 48 h, read-out: GI
Candida albicans [18] = test: Antifungal activity against Candida albicans ATCC 90028 assessed as planktonic growth inhibition at 0.72 uM after 48 hrs by M27-A3 protocol based method relative to control; assay type: functional; settings: ATCC 90028, 48 h, read-out: GI
Candida albicans [19] = test: Antifungal activity against Candida albicans ATCC 90028 assessed as planktonic growth inhibition at 1.44 uM after 48 hrs by M27-A3 protocol based method relative to control; assay type: functional; settings: ATCC 90028, 48 h, read-out: GI
Candida albicans [20] = test: Antifungal activity against Candida albicans ATCC 90028 assessed as planktonic growth inhibition at 2.88 uM after 48 hrs by M27-A3 protocol based method relative to control; assay type: functional; settings: ATCC 90028, 48 h, read-out: GI
Candida albicans [21] = test: Antifungal activity against Candida albicans ATCC 90028 assessed as planktonic growth inhibition at 5.76 uM after 48 hrs by M27-A3 protocol based method relative to control; assay type: functional; settings: ATCC 90028, 48 h, read-out: GI
Candida albicans [22] = test: Antifungal activity against Candida albicans ATCC 90028 assessed as planktonic growth inhibition at 11.51 uM after 48 hrs by M27-A3 protocol based method relative to control; assay type: functional; settings: ATCC 90028, 48 h, read-out: GI
Candida albicans [23] = test: Antifungal activity against Candida albicans ATCC 90028 assessed as planktonic growth inhibition at 23.02 uM after 48 hrs by M27-A3 protocol based method relative to control; assay type: functional; settings: ATCC 90028, 48 h, read-out: GI
Candida albicans [24] = test: Antifungal activity against Candida albicans ATCC 90028 assessed as planktonic growth inhibition at 46.05 uM after 48 hrs by M27-A3 protocol based method relative to control; assay type: functional; settings: ATCC 90028, 48 h, read-out: GI
[25] = Toxicity in Galleria mellonella larvae assessed as survival rate at 46.05 uM measured after 18 hrs (reference value: 100%)
[26] = Toxicity in Galleria mellonella larvae assessed as survival rate at 46.05 uM measured after 48 hrs (reference value: 100%)
[27] = Toxicity in Galleria mellonella larvae assessed as survival rate at 46.05 uM measured after 120 hrs (reference value: 100%)
[28] = Toxicity in Galleria mellonella larvae assessed as movement melanization at 46.05 uM measured after 18 hrs (reference value: 0%)
[29] = Toxicity in Galleria mellonella larvae assessed as movement melanization at 46.05 uM measured after 48 hrs (reference value: 0%)
[30] = Toxicity in Galleria mellonella larvae assessed as movement melanization at 46.05 uM measured after 128 hrs (reference value: 0%)
[31] = Toxicity in Galleria mellonella larvae assessed as cocoon formation at 46.05 uM measured after 18 hrs (reference value: 60 +/- 20%)
[32] = Toxicity in Galleria mellonella larvae assessed as cocoon formation at 46.05 uM measured after 48 hrs (reference value: 85 +/- 5%)
[33] = Toxicity in Galleria mellonella larvae assessed as cocoon formation at 46.05 uM measured after 48 hrs (reference value: 100 +/- 0%)
Candida albicans [34] = test: Antifungal activity against Candida albicans ATCC 90028 assessed as reduction in cell growth after 48 to 72 hrs by M27-A3 protocol based method; assay type: functional
Candida albicans [35] = test: Antifungal activity against Candida albicans ATCC 90028 assessed as reduction in cell growth after 48 to 72 hrs in presence of ergosterol by M27-A3 protocol based method; assay type: functional
Candida albicans [36] = test: Inhibition of Candida albicans ATCC 90028 cell adhesion to human TR146 cells at reduction in cell adherence at 46.05 uM relative to control; assay type: functional; settings: ATCC 90028, TR146
Candida albicans [37] = test: Induction of apoptosis in Candida albicans ATCC 90028 assessed as necrotic cells at 46.05 uM by Annexin V-FITC/propidium iodide staining based flow cytometry relative to control; assay type: functional
Candida albicans [38] = test: Selectivity index, ratio of CC50 for induction of necrosis in Candida albicans ATCC 90028 to MIC for Candida albicans ATCC 90028; assay type: functional
Candida albicans [39] = test: Induction of apoptosis in Candida albicans ATCC 90028 assessed as necrotic cells by Annexin V-FITC/propidium iodide staining based flow cytometry; assay type: functional, organism-based
Candida albicans [40] = test: Induction of reactive oxygen species generation in Candida albicans ATCC 90028 assessed as ROS level at 46.05 uM after 18 hrs by DCFDA probe based flow cytometry (reference value: 0.3%); assay type: functional
Candida albicans [41] = test: Cell cycle arrest in Candida albicans ATCC 90028 assessed as accumulation at G0/G1-phase by propidium iodide staining based flow cytometry; assay type: functional, organism-based
Candida albicans [42] = test: Induction of Candida albicans ATCC 90028 internalization in mouse RAW264.7 cells assessed as reduction in fungus-induced cell damage by measuring live and early apoptotic cells at 46.05 uM after 2 hrs acridine orange/ethidium bromide staining based confocal scanning microscopic analysis; assay type: functional, organism-based
Candida albicans [43] = test: Antifungal activity against Candida albicans ATCC 90028 infected in Galleria mellonella larvae assessed as induction of pathogen entrapping by haemocytes at 10 uL measured at 24 hrs interval for 144 hrs by HE staining based microscopic analysis; assay type: functional, organism-based
Candida albicans [44] = test: Antifungal activity against Candida albicans ATCC 90028 infected in Galleria mellonella larvae assessed as inhibition of fungus filamentation at 10 uL measured at 24 hrs interval for 144 hrs by HE staining based microscopic analysis; assay type: functional, organism-based

`Clc1ccc(-c2nnn(CCCN3CCCC3c3ccc(Cl)cc3)n2)cc1` (stereo not drawn) gave an inhibition of growth at 0.08 µM (Candida albicans [1]) of 99.6%, an inhibition of growth at 0.16 µM (Candida albicans [2]) of 99.5% and an inhibition of growth at 0.31 µM (Candida albicans [3]) of 99.2%. The inhibition of growth at 0.62 µM (Candida albicans [4]) was 99.5%, the inhibition of growth at 1.24 µM (Candida albicans [5]) was 99% and the inhibition of growth at 2.49 µM (Candida albicans [6]) was 99.7%. The inhibition of growth at 4.97 µM (Candida albicans [7]) was 99.3%, the inhibition of growth at 9.94 µM (Candida albicans [8]) was 99.3% and the inhibition of growth at 19.88 µM (Candida albicans [9]) was 99.3%. For the same compound, the inhibition of growth at 39.77 µM (Candida albicans [10]) was 99.6%, the “log(activity)” value (Candida albicans [11]) was -1.4 and the Activity (Vero) was 100%. The selectivity ratio [12] was 2, the IC50 (Candida albicans [13]) was 79.5 µM and the Activity (Candida albicans [14]) was “Active”.
`Cc1cccc(C2CCCN2CCCn2nnc(-c3ccccc3)n2)c1` (stereo not drawn) gave an inhibition of growth at 0.09 µM (Candida albicans [15]) of 100%, an inhibition of growth at 0.18 µM (Candida albicans [16]) of 99.4% and an inhibition of growth at 0.36 µM (Candida albicans [17]) of 99.5%. It also gave an inhibition of growth at 0.72 µM (Candida albicans [18]) of 99.4%, an inhibition of growth at 1.44 µM (Candida albicans [19]) of 99.4% and an inhibition of growth at 2.88 µM (Candida albicans [20]) of 99.3%. The inhibition of growth at 5.76 µM (Candida albicans [21]) was 99.4%, the inhibition of growth at 11.51 µM (Candida albicans [22]) was 99.5% and the inhibition of growth at 23.02 µM (Candida albicans [23]) was 99.4%. The inhibition of growth at 46.05 µM (Candida albicans [24]) was 99.4%, the “log(activity)” value (Candida albicans [11]) was -0.1 and the selectivity ratio [12] was 2. The survival at 18 h, 46.05 µM [25] was 100%, the survival at 48 h, 46.05 µM [26] was 100% and the survival at 120 h, 46.05 µM [27] was 80%. For the same compound, the Activity [28] was 0%, the Activity [29] was 0% and the Activity [30] was 20%. For the same compound, the Activity [31] was 87%, the Activity [32] was 73% and the Activity [33] was 80%. For the same compound, the IC50 (Candida albicans [13]) was 46.1 µM, the MIC (Candida albicans [34]) was 11.5 µM (≈ 4 µg/mL) and the MIC (Candida albicans [35]) was 23 µM. The inhibition at 46.05 µM (Candida albicans [36]) was 98.2%, the Activity (Candida albicans [37]) was 97% and the “Selectivity Index” value (Candida albicans [38]) was 4. The IC50 (Candida albicans [39]) was 46.1 µM, the Activity (Candida albicans [40]) was 7% and the Activity (Candida albicans [41]) was “Active”. For the same compound, the Activity (Candida albicans [42]) was “Active”, the Activity (Candida albicans [43]) was “Active” and the inhibition (Candida albicans [44]) was “Active”.
